Activity and inhibition data for two compounds are collected here from ChEMBL document CHEMBL2150872, “A transcription factor hijacking to regulate RARα by using a chimeric molecule of retinoic acid and a DNA alkylator” (Bioorg Med Chem Lett, 2011).

Activity calls are given as the source filed them. The rule behind the calls is not given here.

The nature of experiment [1]: Induction of RARalpha recruitment to [gamma-32P]-5'-end labeled pUC18 DNA fragment at 1 mM after 30 mins by EMSA.
Experiment [2] deals with Nucleic Acid. Nature of the experiment: Binding affinity to [gamma-32P]-5'-end labeled pUC18 DNA fragment assessed as alkylation at N7 positions of guanine base by strand-breakage assay. Format: nucleic-acid assay.
The target in experiment [3] is T1, Retinoic acid receptor alpha (Homo sapiens) (UniProt P10276).
T1 sequence (whole entry): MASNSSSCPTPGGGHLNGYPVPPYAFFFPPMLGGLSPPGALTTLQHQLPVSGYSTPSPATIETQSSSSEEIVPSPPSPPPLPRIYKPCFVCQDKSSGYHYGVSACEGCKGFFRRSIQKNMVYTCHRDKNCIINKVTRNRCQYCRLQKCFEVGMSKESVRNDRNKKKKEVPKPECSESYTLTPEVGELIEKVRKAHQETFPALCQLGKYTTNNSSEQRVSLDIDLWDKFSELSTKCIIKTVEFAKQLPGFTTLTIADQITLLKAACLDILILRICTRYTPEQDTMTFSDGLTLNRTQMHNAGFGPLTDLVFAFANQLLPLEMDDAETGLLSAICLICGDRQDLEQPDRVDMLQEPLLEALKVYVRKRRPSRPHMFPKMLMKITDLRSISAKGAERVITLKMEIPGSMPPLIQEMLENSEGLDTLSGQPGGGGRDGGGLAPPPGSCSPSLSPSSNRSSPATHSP
The experiment in a line: Displacement of [3H]ATRA from RARalpha overexpressed in COS cell extract after 12 hrs by liquid scintillation counting. The experiment is classed as cell-free.

A short description of experiment [4]: Induction of RARalpha recruitment to [gamma-32P]-5'-end labeled pUC18 DNA fragment at 10 mM after 30 mins by EMSA.
Experiment [5] has as its system Nucleic Acid. Nature of the experiment: Binding affinity to [gamma-32P]-5'-end labeled pUC18 DNA fragment by autoradiography. Format: nucleic-acid assay.
Experiment [6] deals with T1, Retinoic acid receptor alpha (Homo sapiens). The experiment in a line: Inhibition of transactivation of RARalpha overexpressed in COS cells after 24 hrs by luciferase reporter gene assay in presence of ATRA. The experiment is classed as cell-based.
The target is the same in experiment [7]. The experiment in a line: Displacement of [3H]ATRA from RARalpha overexpressed in COS cell extract at 10 nM after 12 hrs by liquid scintillation counting. The experiment is classed as cell-free. For orientation: In a radioligand displacement assay an active substance lowers the binding of a labelled ligand.

Regarding `O=C(O)CCCc1ccc(N(CCCl)CCCl)cc1`, the result in experiment [1] was inactive. Besides, the outcome in the experiment on Nucleic Acid [2] was Active.
Regarding `CC1=C(/C=C/C(C)=C/C=C/C(C)=C/C(=O)NCCCc2ccc(N(CCCl)CCCl)cc2)C(C)(C)CCC1`, the Activity entry in experiment [3] was “Dose-dependent effect”. The result (in experiment [4]; in the experiment on Nucleic Acid [2]; with Nucleic Acid [5]; in experiment [7]) was Active. Further, the inhibition result in experiment [6] is “Dose-dependent effect”.
